Reference: US12377079B2, “Antibacterial compounds and uses thereof” (The Children's Medical Center Corporation, priority 2018, dated 2025)
Values after ≈ are worked out from the molar mass of the structure shown. “Also recorded” adds a separate entry of the source. Where two headings read alike, the source gives them in different places.

What was measured:
[1] = system: CR-K. pneumoniae (ATCC BAA-1705); test: Minimum inhibitory concentration (MIC); details: for Minimum inhibitory concentration (MIC): CR-K. pneumoniae ATCC BAA-1705, PAβN + (40 μg/mL); for MIC: Klebsiella pneumoniae
[2] = system: K. pneumoniae Kp233; test: Minimum inhibitory concentration (MIC); details: for MIC: Klebsiella pneumoniae
[3] = system: E. coli urine isolate EC236; test: Minimum inhibitory concentration (MIC); details: Escherichia coli, read-out: Minimum inhibitory concentration (MIC)
[4] = system: E. coli urine isolate EC235; test: Minimum inhibitory concentration (MIC); details: Escherichia coli, read-out: Minimum inhibitory concentration (MIC)
[5] = system: HeLa S3 cells; test: Alamar Blue assay for cytotoxicity; assay type: cell-based, human; details: 20 hours
Description: Alamar Blue assay for cytotoxicity. HeLa S3 cells were cultured in Dulbecco's modified Eagle medium supplemented with 10% fetal bovine serum, 100 U/mL penicillin, and 100 μg/mL streptomycin. Each well of a 96-well microtiter plate (Nunclon Delta Surface, Thermo Scientific) was seeded with 10,000 cells in 100 μL of culture medium. Cells were incubated for 18 hr in a humidified incubator at 37° C. with 5% CO2 to allow attachment. Compounds were added to the adherent cells to yield a final concentration of 13 and 107 μg/mL. Positive control wells contained 0.1% Triton X-100, carrier control wells contained DMSO, and negative control wells contained medium and cells without DMSO. After addition of compounds, 0.1% Triton, or DMSO, plates were returned to the incubator. Cell viability was measured by resazurin reduction. Alamar Blue reagent (Invitrogen) was added to the cells after a 1.5 hr incubation with the test compounds. Cells were incubated for 20 hr, and then fluorescence was measured using the Infinite 200 (Tecan) with excitation and emission wavelengths of 550 nm and 590 nm, respectively. To calculate viability, the average fluorescence value of Triton-treated positive control wells was subtracted from that of untreated wells or wells containing test compounds. These values were then divided by the average fluorescence of untreated wells to give cell viability as a percentage of the negative control.

[6] = system: K. pneumoniae (Kp233); test: Morphometric analysis by phase contrast microscopy; assay type: cell-based, Klebsiella pneumoniae; details: stationary phase cells, 4 hr; compounds 100 μl/mI alone or with PAβN, ampicillin 150 μg/mL
Description: (§1) Morphometric analysis. Carbapenem-susceptible Kp233 were treated as described for stationary phase viability assays, with the exception that negative control wells contained no DMSO and no antimicrobials. Ampicillin (150 μg/mL) was used as a positive control. Cells were incubated statically at 37° C. for 4 hr. Thirty μL from each well was transferred into a 24-well plate filled with 300 μL of LB broth. Images were captured with a 40× magnification lens using a Nikon Eclipse TE2000-E microscope. Morphometric analysis was carried out using IPLab 4.0 software.

[7] = system: Kp233/pJBA110; test: GFP fluorescence assay (protein synthesis); details: highest concentration used (100 μg/mL), 15 hr
[8] = system: P. aeruginosa PA01; test: Minimum inhibitory concentration (MIC); details: for Minimum inhibitory concentration (MIC): P. aeruginosa PA01, PAβN + (40 μg/mL); for MIC: Pseudomonas aeruginosa, PA01, read-out: Minimum inhibitory concentration (MIC)
[9] = system: CR K. pneumoniae strain BAA-1705; test: Dose-response growth inhibition (viable cell counts in LB broth); details: 22 hr in LB broth, concentrations tested 0.78-50 μg/mL
[10] = system: K. pneumoniae strain BAA-1705; test: High-throughput screen / dose-response based on mannose fermentation; details: for Inhibition of mannose fermentation: 22 hours, pH-DM, concentrations similar to primary and cherry-pick screens
[11] = Particulate matter in aqueous media (micrographs); assay type: physicochemical; details: 100 μg/mL in culture medium
Description: as §1

[12] = system: A. baumanii; test: Minimum inhibitory concentration (MIC); details: for Minimum inhibitory concentration (MIC): A. baumanii, PAβN + (40 μg/mL); for MIC: Acinetobacter baumannii, read-out: Minimum inhibitory concentration (MIC)
[13] = system: Group A streptococcus; test: Minimum inhibitory concentration (MIC); details: read-out: Minimum inhibitory concentration (MIC)
[14] = system: MRSA; test: Minimum inhibitory concentration (MIC); details: Staphylococcus aureus, read-out: Minimum inhibitory concentration (MIC)
[15] = system: resistant GNR; test: MIC with and without efflux pump inhibitor PAβN, resistant GNR as a group
[16] = molecular target: LmGT2 (Leishmania mexicana, UniProt O61059); details: high-throughput screen, PubChem BioAssay; cited from earlier work
[17] = system: K. pneumoniae (Kp233); test: Compound impact on bacterial viability (exponential and stationary phase); assay type: cell-based, Klebsiella pneumoniae; details: 4 hr
Description: Compound impact on bacterial viability. […] One hundred μL of each compound preparation was dispensed into the wells of a microtiter plate. Negative (untreated) wells contained LB with or without PAβN only. Stationary phase cell viability. A glycerol stock of the carbapenem-susceptible clinical strain of K. pneumoniae (Kp233) was inoculated into 1.5 mL of LB and incubated overnight (approximately 18 hr) at 37° C. with shaking. […] Cells were incubated statically at 37° C. for 4 hr, and viable counts were determined by plating. Exponential phase cell viability. Overnight cultures of Kp233 were diluted 1:5,000 into 50 mL of LB broth and incubated at 37° C. with shaking at 200 rpm. […] These cells were also washed twice with NS and inoculated into the wells of a microtiter plate prepared as described above. Cells were incubated statically at 37° C. for 4 hr, and viable counts were determined by plating.

[18] = molecular target: T1, Glut1 (Homo sapiens, UniProt P11166); details: high-throughput screen, PubChem BioAssay; cited from earlier work
T1 sequence (P11166 1-492): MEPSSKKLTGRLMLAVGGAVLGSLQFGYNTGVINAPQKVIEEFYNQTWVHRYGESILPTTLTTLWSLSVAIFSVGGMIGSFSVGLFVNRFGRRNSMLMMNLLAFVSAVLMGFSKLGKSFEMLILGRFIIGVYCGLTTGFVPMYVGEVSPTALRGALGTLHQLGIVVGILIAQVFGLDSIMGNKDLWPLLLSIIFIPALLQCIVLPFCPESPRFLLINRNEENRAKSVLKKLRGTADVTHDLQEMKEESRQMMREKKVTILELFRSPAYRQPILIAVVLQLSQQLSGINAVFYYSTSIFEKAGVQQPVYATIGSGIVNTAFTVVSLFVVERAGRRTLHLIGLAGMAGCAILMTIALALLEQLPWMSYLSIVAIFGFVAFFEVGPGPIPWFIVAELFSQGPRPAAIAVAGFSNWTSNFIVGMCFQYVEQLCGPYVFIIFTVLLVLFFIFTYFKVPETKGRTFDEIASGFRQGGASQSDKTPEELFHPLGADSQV

[19] = ATCCBAA1705, read-out: Minimum inhibitory concentration (MIC)
[20] = KP233, read-out: Minimum inhibitory concentration (MIC)

LmGT2, sequence (O61059 entry or part of it): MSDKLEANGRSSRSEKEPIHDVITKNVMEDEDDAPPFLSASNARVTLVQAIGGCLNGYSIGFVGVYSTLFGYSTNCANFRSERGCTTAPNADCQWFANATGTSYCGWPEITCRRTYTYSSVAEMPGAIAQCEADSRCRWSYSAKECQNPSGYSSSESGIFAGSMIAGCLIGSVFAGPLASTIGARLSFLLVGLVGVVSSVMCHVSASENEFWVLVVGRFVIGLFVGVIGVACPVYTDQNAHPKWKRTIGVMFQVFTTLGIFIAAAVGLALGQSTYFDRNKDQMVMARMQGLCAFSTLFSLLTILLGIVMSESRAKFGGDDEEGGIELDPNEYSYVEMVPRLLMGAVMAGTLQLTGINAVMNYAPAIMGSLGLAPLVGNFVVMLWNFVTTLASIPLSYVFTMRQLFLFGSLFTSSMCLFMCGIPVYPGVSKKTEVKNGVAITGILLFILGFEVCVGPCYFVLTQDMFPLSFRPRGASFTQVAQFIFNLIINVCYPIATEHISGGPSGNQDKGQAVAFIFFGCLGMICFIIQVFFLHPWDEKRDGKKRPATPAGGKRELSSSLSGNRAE

O=C(N[C@H](CO)[C@H](O)c1ccc([N+](=O)[O-])cc1)C(Cl)Cl [Cm, chloramphenicol, reference compound]
Minimum inhibitory concentration (MIC) [1]: 39 µg/mL
Reduction of MIC by PAβN ([1]; K. pneumoniae, with PAβN versus without): 32 fold
MIC [1, 19]: 1250 µg/mL (≈ 3870 µM)
MIC [2, 20]: < 9 µg/mL
MIC [3]: < 9 µg/mL
MIC [4]: < 9 µg/mL

Cc1nn2c(=O)cc(-c3ccc(F)cc3)[nH]c2c1-c1ccccc1 [Compound F02]
Toxicity to HeLa S3 cells (viability by resazurin reduction) ([5]; higher concentration (107 μg/mL)): moderately toxic

Cc1nnc(SCC2=NN(c3nc4ccccc4[nH]3)C(=O)C2)s1 [Compound C17]
Cell shape / average particle size [6]: do not significantly alter cell shape
Bacterial growth (OD) and GFP fluorescence [7]: decreased both bacterial growth and protein synthesis
Minimum inhibitory concentration (MIC) [1]: 48 µg/mL
MIC [1, 19]: 96 µg/mL (≈ 279 µM)
Toxicity to HeLa S3 cells (viability by resazurin reduction) ([5]; 13 and 107 μg/mL): least toxic; also recorded: not toxic
Minimum inhibitory concentration (MIC) [8]: 48 µg/mL
MIC [8]: > 96 µg/mL
Growth inhibition (CFU/ml) [9]: inhibited growth
MIC [2, 20]: 48 µg/mL (≈ 139 µM)
Inhibition of mannose fermentation [10]: inhibited fermentation
Activity in cherry-pick re-test ([10]; dispensed by HP D300 digital dispenser): significant activity
Particulate matter in micrographs (insolubility in aqueous media) [11]: not
Minimum inhibitory concentration (MIC) [12]: 24 µg/mL
MIC [12]: > 96 µg/mL
MIC [13]: 96 µg/mL (≈ 279 µM)
MIC [3]: 96 µg/mL (≈ 279 µM)
MIC [14]: 24 µg/mL (≈ 69.7 µM)
MIC [4]: 96 µg/mL (≈ 279 µM)
Change of MIC on addition of PAβN (in words) [15]: minimally decreased

Clc1cc(Br)ccc1-c1ccc(CNCC2CCNCC2)o1 [Compound O06]
Cell shape / average particle size [6]: do not significantly alter cell shape
Bacterial growth (OD) and GFP fluorescence [7]: decreased both bacterial growth and protein synthesis
Minimum inhibitory concentration (MIC) [1]: 96 µg/mL
MIC [1, 19]: 96 µg/mL (≈ 250 µM)
Toxicity to HeLa S3 cells (viability by resazurin reduction) ([5]; 13 and 107 μg/mL): most toxic
Minimum inhibitory concentration (MIC) [8]: 24 µg/mL
MIC [8]: > 96 µg/mL
Activity in screen for LmGT2 inhibitors [16]: active
MIC [2, 20]: 96 µg/mL (≈ 250 µM)
Inhibition of mannose fermentation [10]: inhibited fermentation
Bacterial viability (CFU) with efflux pump inhibition ([17]; 100 μg/mL compound + PAβN 40 μg/ml, exponential and stationary phase): significantly potentiated the killing activity; also recorded: significantly decrease the viability
Bacterial viability (CFU) ([17]; 100 μg/mL compound alone, exponential and stationary phase): decreased the viability
Particulate matter in micrographs (insolubility in aqueous media) [11]: not
Minimum inhibitory concentration (MIC) [12]: 24 µg/mL
MIC [12]: 48 µg/mL (≈ 125 µM)
Activity in screen for Glut1 inhibitors [18]: active
MIC [13]: 48 µg/mL (≈ 125 µM)
MIC [3]: 96 µg/mL (≈ 250 µM)
MIC [14]: 48 µg/mL (≈ 125 µM)
MIC [4]: 96 µg/mL (≈ 250 µM)
Change of MIC on addition of PAβN (in words) [15]: minimally decreased

C[C@H]1COc2c(N3CCN(C)CC3)c(F)cc3c(=O)c(C(=O)O)cn1c23 [Lev, levofloxacin, reference compound]
Minimum inhibitory concentration (MIC) [8]: 0.015 µg/mL
Reduction of MIC by PAβN ([8]; P. aeruginosa, with PAβN versus without): 16 fold
MIC [8]: 0.25 µg/mL (≈ 0.692 µM)
MIC [2, 20]: 0.031 µg/mL (≈ 0.0858 µM)
MIC [3]: 0.015 µg/mL (≈ 0.0415 µM)
MIC [4]: 0.015 µg/mL (≈ 0.0415 µM)

CC1(C)S[C@@H]2[C@H](NC(=O)[C@H](N)c3ccccc3)C(=O)N2[C@H]1C(=O)O [ampicillin, reference compound]
Cell shape / average particle size [6]: formed filaments with significantly increased average particle size

O=C1C=C2C(=CCOC2O)O1 (centres unmarked) [patulin, reference compound]
MIC ([1]; ATCCBAA1705, read-out: Minimum inhibitory concentration, CR-K. pneumoniae ATCC BAA-1705, Defined Medium): 9.38 µg/mL (≈ 60.9 µM)
MIC ([1]; ATCCBAA1705, read-out: Minimum inhibitory concentration, CR-K. pneumoniae ATCC BAA-1705, LB broth (rich medium)): 18.8 µg/mL (≈ 122 µM)
Minimum inhibitory concentration ([2]; K. pneumoniae Kp233, Defined Medium): 9.38 µg/mL (≈ 60.9 µM)
MIC ([2]; KP233, read-out: Minimum inhibitory concentration): 9.38 µg/mL (≈ 60.9 µM)

phenylalanine-arginine β-naphthylamide [PAβN, reference compound]
Bacterial viability (CFU) ([17]; PAβN 40 μg/mL alone, exponential or stationary phase): did not decrease the viability
